“And” between values parts separate entries of the source, which are not always exact repeats. Identical values can stand only once. The source made the active and inactive calls.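 How the source made its calls: active means compounds giving half or more protection of infected cells from virus-caused growth loss, again on retest; inactive means the rest.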 Where a SMILES comes first, the peptide text is derived from it. [ ]: non-standard residue; d: D form. The star is where a group is joined. Phe(4-NO2) = N[CH](Cc1ccc([N+](=O)[O-])cc1)C(=O)O; Cbz = O=C(OCc1ccccc1)*
System: CEM cells HIV-1 protection, formazan growth assay
Experiment: NCI AIDS Antiviral Assay
Conditions: for IC50: measured here: growth of uninfected CEM cells
How it was run: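 Steps: treat uninfected and HIV-1-infected human CEM cells at five drug levels; quantify growth by soluble formazan; retest any compound reaching 50% protection; classify actives from the retest.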

| Structure (SMILES) | EC50 [µM] | IC50 | outcome |
| --- | --- | --- | --- |
| NC(Cc1ccc(B(O)O)cc1)C(=O)NC(CO)CO (configuration not stated) | > 200 | > 200 µM | – |
| Cc1cccc(C)c1NC(=O)CCCC(=O)CC(=O)/C=C/c1ccccc1 | > 501 | > 501 µM | – |
| CC1(C)C2CCC1(C)C(NC(=O)CCN1CCOCC1)C2 (configuration not stated) | > 851 | 537 µM | – |
| CCCCC(N)CSSCC(N)CCCC (configuration not stated) | > 741 | 21.4 µM | – |
| O=C(Cc1nc2ccccc2s1)C(=O)Nc1cccc(Cl)c1 | – | – | inactive |
| CN1CCC(OC(=O)Oc2ccccc2)(c2ccccc2)CC1 | > 200 | 30.9 µM | – |
| C[C@]12Cc3conc3C(O)=C1CC[C@@H]1C2CC[C@@]2(C)C1CC[C@@H]2O (some centres not stated) | > 204 | 25.7 µM | – |
| O=[N+]([O-])c1ccc(C(Nc2ccccc2)P(c2ccccc2)c2ccccc2)cc1 (configuration not stated) | > 200 | 43.7 µM | – |
| CC1(C)O[C@@H](CCl)C[C@H](C#N)O1 | > 200 | > 200 µM | – |
| NC1=NC(=O)CS1 | > 2140 | > 2140 µM | – |
| CCCCCCCCCCCCCCC[C@@H](O)C[N+](C)(C)CCO | > 200 | 2.82 µM | – |
| COc1ccc(NS(=O)c2c(C)cc(C)cc2C)cc1 (configuration not stated) | > 200 | 12 µM | – |
| O=C(Nn1c(-c2ccccc2)nc2ccccc2c1=O)c1ccccn1 | > 200 | 123 µM | – |
| COc1cccc(C(=O)C#Cc2cnc(OC)nc2OC)c1 | > 0.2 | 0.0437 µM | – |
| C1CCC(N2CSCSC2)CC1 | > 200 | 107 µM | – |
| O=C(NO)C(=O)Nc1ccc(Cl)cc1[N+](=O)[O-] | > 100 | > 100 µM | – |
| COc1cc(C(SCc2ccccc2)SCc2ccccc2)ccc1O | > 200 | 34.7 µM | – |
| CC(=O)OCC1OC(n2c(S)c(C#N)c(-c3ccccc3)c(C#N)c2=O)C(OC(C)=O)C(OC(C)=O)C1OC(C)=O (configuration not stated) | > 200 | > 200 µM and 21.9 µM | – |
| Cc1cc(N(CCC#N)CCC#N)ccc1/C(N=Nc1cccc(Cl)c1)=N/NC(=O)c1cc(Cl)ccc1O | > 200 | 11.7 µM | – |
| CN(CCC#N)c1ccc(/C=C2\SC(=S)NC2=O)cc1 | > 200 | 34.7 µM | – |
| Nc1ccc(CCCCc2ccc(S(=O)(=O)F)cc2Cl)c(Cl)c1 | > 200 | 21.9 µM | – |

| Structure (SMILES) | EC50 [µM] | IC50 | outcome |
| --- | --- | --- | --- |
| CN(C)N1CCOC1=O | > 200 | > 200 µM | – |
| O=c1cc(-c2ccc(O)c(O)c2)oc2cc(OC3OC(CO)C(O)C(O)C3O)cc(O)c12 (configuration not stated) | > 200 | 15.5 µM | – |
| CCOC(=O)CCC(NC(=O)OCc1ccccc1)C(=O)NC(CCC(=O)OCC)C(=O)NC(CCC(=O)OCC)C(=O)NC(CCC(=O)OCC)C(=O)NC(CCC(=O)OCC)C(=O)NC(Cc1ccc([N+](=O)[O-])cc1)C(=O)NC(CCC(=O)OCC)C(=O)NC(CCC(=O)OCC)C(=O)NC(CCC(=O)OCC)C(=O)NC(CCC(=O)OCC)C(=O)NC(CCC(=O)OCC)C(=O)OCC (configuration not stated) (Cbz-E(OEt)E(OEt)E(OEt)E(OEt)E(OEt)[Phe(4-NO2)]E(OEt)E(OEt)E(OEt)E(OEt)E(OEt)-OEt; configuration not given here) | > 50.1 | > 50.1 µM | – |
| CC(=O)COC(=O)CC(C)=O | – | – | inactive |
| Cc1c(C)c2c(c(N)c1C#N)C(=O)N(NC(=O)c1ccccc1)C2=O | > 200 | 186 µM | – |
| Cc1ccc(SSc2ccc([N+](=O)[O-])cc2[N+](=O)[O-])cc1 | > 200 | 9.12 µM | – |
| COc1ccc(-c2nnc(-c3nsc4ccccc34)o2)cc1 | > 17 | > 17 µM | – |
| CC(=O)O[C@H]1CC[C@@]2(C)C(CC[C@]3(C)C2CC[C@]2(C)Oc4c(C)cc(O)cc4C[C@@H]23)C1(C)C (some centres not stated) | – | – | inactive |
| N/C(CCSCCSCC/C(N)=N\O)=N\O | > 200 | > 200 µM | – |
| CC(C)C12C=CC(C)(CC1)n1c(=O)c3cc4ccccc4cc3c(=O)n12 (configuration not stated) | > 4.17 | > 4.17 µM | – |
| Cc1cc(C2(O)C=C(C(C)(C)C)C(=O)C(C(C)(C)C)=C2)c(C)cc1C1(O)C=C(C(C)(C)C)C(=O)C(C(C)(C)C)=C1 | > 151 | > 151 µM | – |
| CC1(C)CS(=O)(=O)CC(C)(C)C(=O)C1=O | > 200 | > 200 µM | – |
| COc1c(C(=O)/C(=N/Nc2cccc(Cl)c2)C(C)=O)c(O)c(OC)c2occc12 | > 200 | 85.1 µM | – |
| O=C(/C=C\c1ccc(Cl)c(Cl)c1)c1cccs1 | > 200 | 10.2 µM | – |
| Cc1cn(C2CC3C(COCN3O)O2)c(=O)[nH]c1=O (configuration not stated) | > 200 | 166 µM | – |
| O=C1c2ccccc2C(=O)c2c1sc1nc3ccccc3n21 | > 200 | 8.91 µM | – |
| NC(N)=NCCS(=O)(=O)O | > 200 | > 200 µM | – |
| COc1cc(C2SC(N)=Nc3c2c(C)nn3C(=O)c2ccc(Cl)cc2)cc(OC)c1OC (configuration not stated) | > 200 | > 200 µM | – |
| CC(C)C1CC=NN1C(=O)OC(C)(C)C (configuration not stated) | > 200 | > 200 µM | – |
| O=C1[C@@H]2C(c3ccccc3Br)=NO[C@@H]2C(=O)N1c1ccc(Cc2ccc(N3C(=O)[C@H]4C(c5ccccc5Br)=NO[C@H]4C3=O)cc2)cc1 | > 9.55 | > 9.55 µM | – |
| CC[N+]1(C)CCC(O)(/C=C/c2ccc(Cl)c(Cl)c2)C(C(=O)/C=C/c2ccc(Cl)c(Cl)c2)C1 (configuration not stated) | > 200 | 3.8 µM | – |

| Structure (SMILES) | EC50 [µM] | IC50 | outcome |
| --- | --- | --- | --- |
| Cc1nc2ccccc2c(=O)n1/N=C/c1ccc(N(C)C)cc1 | > 200 | > 200 µM | – |
| C[C@H](Nc1nc(N)c(N=O)c(=O)n1C)C(=O)O | > 200 | > 200 µM | – |
| O=[N+]([O-])c1ccc(-c2nnc(C34CC5CC(CC(C5)C3)C4)o2)cc1 | > 200 | > 200 µM | – |
| COc1cccc(C2SCC(=O)N2c2ccc(-c3ccc(-n4c(-c5ccccc5)nc5ccccc5c4=O)cc3)cc2)c1OC (configuration not stated) | > 200 | 63.1 µM | – |
| CCC(NC(=O)c1ccccc1SC(=O)CCCC[n+]1ccccc1)C(N)=O (configuration not stated) | > 3.8 | – | – |
| COC(=O)[C@H](Cc1ccccc1)NP(=O)(O)OCC1OC(n2cc(C)c(=O)[nH]c2=O)CC1N=[N+]=[N-] (some centres not stated) | 0.0251 | 10 µM | – |
| Brc1ccc(CCNCCN2CCCCC2)cc1 | > 102 | 29.5 µM | – |
| O=C1C[C@H](c2ccccc2)C2(C(=O)c3ccccc3C2=O)[C@@H](c2ccccc2)C1 | 51.3 | 102 µM | – |
| CC1CC2C3CC(F)C4=CC(=O)C=CC4(C)C3(F)C(O)CC2(C)C1(O)C(=O)CO (configuration not stated) | – | – | inactive |
| CCOc1cc2c(=O)oc3c(OC)ccc4ccc(c1OC)c2c43 | – | – | inactive |
| C[N+](C)(C)CC1CCCC(C[N+](C)(C)C)C1=O (configuration not stated) | – | – | inactive |
| CCO/C=C1\C(=O)N(C(C)=O)c2cc(OC)c(OC)cc21 | > 200 | 26.9 µM | – |
| CC1/C=C/C=C/CC/C=C/C=C/C=C/C=C/C(OC2OC(C)C(O)C(N)C2O)CC2OC(CC(O)C(O)CCC(O)CC(O)CC(O)CC(=O)OC(C)C(C)C1O)CC(O)C2C(=O)O (configuration not stated) | > 50.1 | 3.31 µM | – |
| S=C(NCCc1ccccn1)N/N=C(\c1ccccc1)c1ccccn1 | > 0.2 | 0.0676 µM | – |
| NC(=O)c1cc2ccc(O)c(O)c2cn1 | > 209 | 2.95 µM | – |
| Cc1ccc(N(C=O)c2c([N+](=O)[O-])cc([N+](=O)[O-])c3c2=[N+]([O-])CN=3)cc1 | > 7.59 | > 7.59 µM | – |
| CNC(=O)O/N=C(/C)c1cccc([N+](=O)[O-])c1 | > 200 | > 200 µM | – |
| CC(=O)c1cc2c3c(c1)C(=O)CCN3CCC2=O | – | – | inactive |
| Cc1ccc(S(=O)(=O)OC2C3OC(C)(C)OC3OC2C2CSC(=S=O)S2)cc1 (configuration not stated) | > 67.6 | > 67.6 µM | – |
| CN1CCCC(CC2c3ccccc3Sc3ccccc32)C1 (configuration not stated) | > 200 | 12.3 µM | – |
| CCN(CC)C1=Nc2ccccc2-n2ccnc2C1 | – | – | inactive |

| Structure (SMILES) | EC50 [µM] | IC50 | outcome |
| --- | --- | --- | --- |
| CCC1=C(C)/C(=C/c2[nH]c(C(Br)Br)c(CC)c2C)N=C1C(Br)Br | – | – | inactive |
| CC1(C)C(=O)C2(OS(=O)(=O)C(F)(F)F)CCC1C2 (configuration not stated) | > 200 | > 200 µM | – |
| OC(Nc1ccccn1)(C(F)(F)F)C(F)(F)F | > 200 | > 200 µM | – |
| CC1CC[C@H]2[C@@H]1[C@H]1[C@@H](CC[C@@]23CCc2ccccc2O3)C1(C)C (some centres not stated) | > 11.5 | > 11.5 µM | – |
| O=S1(=O)C(c2cccc(C(F)(F)F)c2)=C(O)c2cc3ccccc3nc21 | – | – | inactive |
| OC1C=CC2C(CC1)C1(c3ccccc3)OC2(c2ccccc2)c2ccccc21 (configuration not stated) | – | – | inactive |
| C=C1CC[C@@](C)(c2ccc(C)cc2)C1C (some centres not stated) | – | – | inactive |
| COC1=CC(=O)c2c(O)c3c(c(O)c2C1=O)C[C@](C)(O)C[C@@H]3O | – | – | inactive |
| NCCCC[C@H](NC(=O)[C@H](CS)NC(=O)[C@@H](N)Cc1cnc[nH]1)C(=O)N[C@@H](Cc1ccc(O)cc1)C(=O)N[C@@H](Cc1c[nH]c2ccccc12)C(=O)N[C@@H](Cc1c[nH]c2ccccc12)C(N)=O | > 200 | > 200 µM | – |
| COC(=O)C1CCC(=S)N1C(C)=O (configuration not stated) | > 200 | > 200 µM | – |
| Cc1cc(Cl)ccc1N1C(=O)C(=O)C(c2nc3ccccc3o2)C(=O)C1=O | – | – | inactive |
| Cc1cc(N(CCC#N)CCC#N)ccc1/C(N=Nc1ccc(Cl)cc1)=N\NC(=O)c1cc(Cl)ccc1O | > 200 | 102 µM | – |
| Cc1ccc(-n2c(Cn3nnc(-c4cccnc4)n3)nn(C3OC(COC(=O)c4ccccc4)C(OC(=O)c4ccccc4)C3OC(=O)c3ccccc3)c2=S)cc1 (configuration not stated) | > 200 | > 200 µM | – |
| CCCCCCCSCC(O)COC(c1ccccc1)(c1ccccc1)c1ccccc1 (configuration not stated) | > 200 | 30.2 µM | – |
| C/C(=N\NC(=S)N(C)CCN(C)C(=S)N/N=C(\C)c1ccccn1)c1ccccn1 | > 200 | 2.45 µM | – |
| COc1ccc(/C=C2\CSC(=O)NC2=O)cc1OC | > 891 | 240 µM | – |
| Cc1nc2ccc(S(=O)(=O)Nc3nccs3)cc2c(=O)n1NS(=O)(=O)c1nccs1 | > 200 | 49 µM | – |
| Cn1c(-c2cccs2)cc(-c2ccsc2)c1-c1ccsc1 | > 200 | > 200 µM | – |
| C[C@]12CC[C@H](O)CC1=CC[C@@H]1C2CC[C@]2(C)Nc3[nH]ncc3CC12 (some centres not stated) | – | – | inactive |
| Nc1nc(NNc2cccc(F)c2)cc(=O)[nH]1 | > 200 | 16.6 µM | – |
| CC(=O)/C(=C/c1ccccc1Br)C(=O)c1ccccc1 | > 57.5 | 22.4 µM | – |

Reference: PubChem BioAssay AID179 (DTP/NCI, 2004)
